Assay results published in patent publication US20060128660A1, “FK228 analogs and methods of making and using the same” (Wisconsin Alumni Research Foundation, priority 2004, published 2006).

Assays:
Trx = conditions: human primary breast and colon tumor tissues, Butler et al. 2002; cited from earlier work
HDAC = assay: Western blot analysis of histones (tetra-AcLys H4) isolated from treated Drosophila S2 cells; type: cell-based
Protocol: Drosophila S2 cells can be cultured in Schneider's medium and grown as previously described by Wade and co-workers for periods ranging from 12 h to 96 h (Ballestar et al., 2001, Eur. J. Biochem. 268: 5397-5406). Cells may then be lysed and nuclear extracts prepared according to Thompson and co-workers (Steffan, 2001, Nature 413: 739-743). Lysates are then be subjected to differing concentrations of HDAC inhibitors and/or reductants (Barlow et al., 2001, Exp. Cell Res. 265: 90-103).
H2B detection was used to ensure equivalent protein loading to each well. […] Cells in all reactions were incubated at ambient temperature in media that contained 20 μM of each respective synthetic agent. Incubations were conducted for either 48 or 72 hours prior to nuclei isolation and processing.
H2B detection was used to ensure equivalent protein loading to each well. […] Lane 1 is a dioxane solvent control and concentrations of “drug” in cell medium are indicated above each lane. All cells were treated for a period of 48 hours at ambient temperature prior to nuclei isolation and processing.
Briefly, 2×10^6 cells in 10 mL medium are brought to 2×10^−5 M in synthetic intermediate and then allowed to incubate at ambient temperature for specified times. […] Histone H2B was detected in each case in order to verify equal protein loadings for each lane.

SMILES | effect on Trx (Trx) | acetylated H4 in histones isolated from treated cells (Western blot) (HDAC; 20 μM, 48 or 72 hours, ambient temperature (FIG. 3A)) | cellular HDAC inhibition (Western blot data) (HDAC; at −20 μM concentration)
O=C(CCCCCCC(=O)Nc1ccccc1)NO [SAHA] | down regulates Trx |  | 
O=C(CCCCCS)NC(CO)CSCc1ccccc1 (stereo not drawn) [compound 33] |  | a significant amount of acetylated H4 | potent cellular HDAC inhibitors
